Assay results published in patent US20090048310A1, “AGENT FOR PREVENTION/TREATMENT OF DISEASE CAUSED BY ACYCLOVIR-RESISTANT HERPESVIRUS” (ASTELLAS PHARMA INC., priority 2005, published 2009).

Experiments:
HSV-1 strain WT-51 = assay: Cutaneous HSV-1 infection mouse model; assay type: in vivo, HR-1 hairless mouse; details: oral, 10 mg/kg twice a day for 5 days, scores for 17 days
Protocol: Using a cutaneous HSV-1 infection mouse model prepared in reference to the method of H. Machida et al. (Antiviral Res., 1992, 17, 133-143), the in vivo […] of the compounds of the present invention was tested using an animal model. The skin of each HR-1 hairless mouse [female, 7 weeks of age] was scratched lengthwise and breadthwise several times using a needle and a virus suspension (HSV-1 strain WT-51, 1.5×10^4 PFU/15 μl) was dropped to the scarified region for infection, while anesthetized with diethyl ether.
Tested compounds were administered orally as a methyl cellulose suspension, except for compounds marked with asterisk which were dissolved in 20% Cremophor EL (Nacalai Tesque)/20% polyethylene glycol (PEG) 400/60% H2O solution, starting at 3 hours after the infection, and then at a dose of 10 mg/kg twice a day for 5 days. The symptom of the skin lesion caused by HSV-1 infection were classified in the following scores for 17 days:
Score 0: no signs of infection.
Score 1: localized, barely perceptible small vesicles.
Score 2: slight vesicle spread.
Score 3: large patches of vesicles formed.
Score 4: zosteriform vesicles.
Score 5: large patches of ulcers formed.
Score 6: zosteriform with severe large ulcers.
Score 7: hind limb paralysis or death.
The AUC value was calculated from each group's mean disease score, and the disease inhibitory rate of the group administered with each test compound to the placebo group was calculated using the AUC.

ACV-resistant HSV-1 = ACV-resistant HSV-1 infection lethal model in nude mice; assay type: in vivo, nude mouse (CD-1(ICR)-nu/nu); details: 100 mg/kg oral twice a day for 15 days
Protocol: ACV-resistant HSV-1 (3×10^6 pfu) was inoculated into the peritoneal cavity of each nude mouse (CD-1(ICR)-nu/nu, […], female, Charles River Japan) to cause infection with the virus. Each compound to be tested was made into a methyl cellulose suspension and orally administered at a dose of 100 mg/kg, twice a day for 15 days starting 1 hour after the infection (from 0 to 14 days after the infection).
During 17 days after the infection, death of the mice caused by ACV-resistant HSV-1 infection was observed every day, and the number of survived animals was counted.

[1] = dissolved in 20% Cremophor EL/20% PEG 400/60% H2O (asterisk)

## Nc1nc(-c2ccc(NC(=O)CN(C(=O)c3ccc(F)cc3)c3ccc4ncsc4c3)cc2)cs1 [Comparative compound A, reference compound]
HSV-1 strain WT-51; methyl cellulose suspension
  Inhibition ratio (%) (disease inhibitory rate vs placebo from AUC of mean disease score): 38%

## COc1ccc(N(CC(=O)Nc2ccc(-c3csc(N)n3)cc2)C(=O)C2CCS(=O)(=O)CC2)cc1 [Comparative compound B, reference compound]
HSV-1 strain WT-51; methyl cellulose suspension
  Inhibition ratio (%) (disease inhibitory rate vs placebo from AUC of mean disease score): 2%

## COc1ccc(N(CC(=O)Nc2ccc(-c3csc(N)n3)cc2)C(=O)C2CCC(O)CC2)cc1 (stereo not drawn) [Comparative compound C, reference compound]
HSV-1 strain WT-51; methyl cellulose suspension
  Inhibition ratio (%) (disease inhibitory rate vs placebo from AUC of mean disease score): 44%

## Nc1nc(-c2ccc(NC(=O)CN(C(=O)C3CCS(=O)(=O)CC3)c3ccc4c(c3)CCC4)cc2)cs1 [Comparative compound D, reference compound]
HSV-1 strain WT-51; methyl cellulose suspension
  Inhibition ratio (%) (disease inhibitory rate vs placebo from AUC of mean disease score): 43%

## Cc1cccc(C)c1N(CC(=O)Nc1ccc(-c2cocn2)cc1)C(=O)C1CCS(=O)(=O)CC1 [Preparation 1, N-(2,6-dimethylphenyl)-N-(2-{[4-(1,3-oxazol-4-yl)phenyl]amino}-2-oxoethyl)tetrahydro-2H-thiopyran-4-carboxamide 1,1-dioxide]
HSV-1 strain WT-51; [1]
  Inhibition ratio (%) (disease inhibitory rate vs placebo from AUC of mean disease score): * 93%

## Cc1cccc(N(CC(=O)Nc2ccc(-c3cocn3)cc2)C(=O)C2CCS(=O)(=O)CC2)c1 [Preparation 3, N-(3-methylphenyl)-N-(2-{[4-(1,3-oxazol-4-yl)phenyl]amino}-2-oxoethyl)tetrahydro-2H-thiopyran-4-carboxamide 1,1-dioxide]
HSV-1 strain WT-51; methyl cellulose suspension
  Inhibition ratio (%) (disease inhibitory rate vs placebo from AUC of mean disease score): 70%

## Cc1ccccc1N(CC(=O)Nc1ccc(-c2cocn2)cc1)C(=O)C1CCS(=O)(=O)CC1 [Preparation 4, N-(2-methylphenyl)-N-(2-{[4-(1,3-oxazol-4-yl)phenyl]amino}-2-oxoethyl)tetrahydro-2H-thiopyran-4-carboxamide 1,1-dioxide]
HSV-1 strain WT-51; methyl cellulose suspension
  Inhibition ratio (%) (disease inhibitory rate vs placebo from AUC of mean disease score): 77%

## Cc1ccc(N(CC(=O)Nc2ccc(-c3cocn3)cc2)C(=O)C2CCS(=O)(=O)CC2)c(C)c1 [Preparation 6, N-(2,4-dimethylphenyl)-N-(2-{[4-(1,3-oxazol-4-yl)phenyl]amino}-2-oxoethyl)tetrahydro-2H-thiopyran-4-carboxamide 1,1-dioxide]
HSV-1 strain WT-51; methyl cellulose suspension
  Inhibition ratio (%) (disease inhibitory rate vs placebo from AUC of mean disease score): 92%

## Cc1ccc(N(CC(=O)Nc2ccc(-c3cocn3)cc2)C(=O)C2CCS(=O)(=O)CC2)cc1C [Preparation 8, N-(3,4-dimethylphenyl)-N-(2-{[4-(1,3-oxazol-4-yl)phenyl]amino}-2-oxoethyl)tetrahydro-2H-thiopyran-4-carboxamide 1,1-dioxide]
HSV-1 strain WT-51; methyl cellulose suspension
  Inhibition ratio (%) (disease inhibitory rate vs placebo from AUC of mean disease score): 91%

## O=C(CN(C(=O)C1CCS(=O)(=O)CC1)c1ccc2c(c1)CCC2)Nc1ccc(-c2cocn2)cc1 [Preparation 11, N-(2,3-dihydro-1H-inden-5-yl)-N-(2-{[4-(1,3-oxazol-4-yl)phenyl]amino}-2-oxoethyl)tetrahydro-2H-thiopyran-4-carboxamide 1,1-dioxide]
HSV-1 strain WT-51; methyl cellulose suspension
  Inhibition ratio (%) (disease inhibitory rate vs placebo from AUC of mean disease score): 92%

## Cc1cc(N(CC(=O)Nc2ccc(-c3cocn3)cc2)C(=O)C2CCS(=O)(=O)CC2)ccc1Cl [Preparation 13, N-(4-chloro-3-methylphenyl)-N-(2-{[4-(1,3-oxazol-4-yl)phenyl]amino}-2-oxoethyl)tetrahydro-2H-thiopyran-4-carboxamide 1,1-dioxide]
HSV-1 strain WT-51; methyl cellulose suspension
  Inhibition ratio (%) (disease inhibitory rate vs placebo from AUC of mean disease score): 89%

## Cc1ccc(N(CC(=O)Nc2ccc(-c3cocn3)cc2)C(=O)C2CCS(=O)(=O)CC2)cc1F [Preparation 14, N-(3-fluoro-4-methylphenyl)-N-(2-{[4-(1,3-oxazol-4-yl)phenyl]amino}-2-oxoethyl)tetrahydro-2H-thiopyran-4-carboxamide 1,1-dioxide]
HSV-1 strain WT-51; methyl cellulose suspension
  Inhibition ratio (%) (disease inhibitory rate vs placebo from AUC of mean disease score): 98%

## Cc1ccc(N(CC(=O)Nc2ccc(-c3cocn3)cc2)C(=O)C2CCS(=O)(=O)CC2)c(C)c1F [Preparation 17, N-(3-fluoro-2,4-dimethylphenyl)-N-(2-{[4-(1,3-oxazol-4-yl)phenyl]amino}-2-oxoethyl)tetrahydro-2H-thiopyran-4-carboxamide 1,1-dioxide]
HSV-1 strain WT-51; methyl cellulose suspension
  Inhibition ratio (%) (disease inhibitory rate vs placebo from AUC of mean disease score): 94%

## Cc1c(F)cc(N(CC(=O)Nc2ccc(-c3cocn3)cc2)C(=O)C2CCS(=O)(=O)CC2)cc1F [Preparation 19, N-(3,5-difluoro-4-methylphenyl)-N-(2-{[4-(1,3-oxazol-4-yl)phenyl]amino}-2-oxoethyl)tetrahydro-2H-thiopyran-4-carboxamide 1,1-dioxide]
HSV-1 strain WT-51; methyl cellulose suspension
  Inhibition ratio (%) (disease inhibitory rate vs placebo from AUC of mean disease score): 71%

## Cc1ccc(N(CC(=O)Nc2ccc(-c3cocn3)cc2)C(=O)C2CCS(=O)(=O)CC2)c(F)c1 [Preparation 20, N-(2-fluoro-4-methylphenyl)-N-(2-{[4-(1,3-oxazol-4-yl)phenyl]amino}-2-oxoethyl)tetrahydro-2H-thiopyran-4-carboxamide 1,1-dioxide]
HSV-1 strain WT-51; methyl cellulose suspension
  Inhibition ratio (%) (disease inhibitory rate vs placebo from AUC of mean disease score): 91%

## Cc1cccc(N(CC(=O)Nc2ccc(-c3ncon3)cc2)C(=O)C2CCS(=O)(=O)CC2)c1C [Preparation 24, N-(2,3-dimethylphenyl)-N-(2-{[4-(1,2,4-oxadiazol-3-yl)phenyl]amino}-2-oxoethyl)tetrahydro-2H-thiopyran-4-carboxamide 1,1-dioxide]
HSV-1 strain WT-51; methyl cellulose suspension
  Inhibition ratio (%) (disease inhibitory rate vs placebo from AUC of mean disease score): 89%

## Cc1ccc(N(CC(=O)Nc2ccc(-c3ncon3)cc2)C(=O)C2CCS(=O)(=O)CC2)c(C)c1 [Preparation 25, N-(2,4-dimethylphenyl)-N-(2-{[4-(1,2,4-oxadiazol-3-yl)phenyl]amino}-2-oxoethyl)tetrahydro-2H-thiopyran-4-carboxamide 1,1-dioxide]
HSV-1 strain WT-51; [1]
  Inhibition ratio (%) (disease inhibitory rate vs placebo from AUC of mean disease score): * 70%

## Cc1cc(F)cc(C)c1N(CC(=O)Nc1ccc(-c2ncon2)cc1)C(=O)C1CCS(=O)(=O)CC1 [Preparation 31, N-(4-fluoro-2,6-dimethylphenyl)-N-(2-{[4-(1,2,4-oxadiazol-3-yl)phenyl]amino}-2-oxoethyl)tetrahydro-2H-thiopyran-4-carboxamide 1,1-dioxide]
HSV-1 strain WT-51; [1]
  Inhibition ratio (%) (disease inhibitory rate vs placebo from AUC of mean disease score): * 86%

## O=C(CN(C(=O)C1CCS(=O)(=O)CC1)c1ccc2c(c1)CCC2)Nc1ccc(-c2ncon2)cc1 [Preparation 33, N-(2,3-dihydro-1H-inden-5-yl)-N-(2-{[4-(1,2,4-oxadiazol-3-yl)phenyl]amino}-2-oxoethyl)tetrahydro-2H-thiopyran-4-carboxamide 1,1-dioxide]
HSV-1 strain WT-51; methyl cellulose suspension
  Inhibition ratio (%) (disease inhibitory rate vs placebo from AUC of mean disease score): 79%

## Cc1ccc(N(CC(=O)Nc2ccc(-c3ncon3)cc2)C(=O)C2CCS(=O)(=O)CC2)cc1F [Preparation 35, N-(3-fluoro-4-methylphenyl)-N-(2-{[4-(1,2,4-oxadiazol-3-yl)phenyl]amino}-2-oxoethyl)tetrahydro-2H-thiopyran-4-carboxamide 1,1-dioxide]
HSV-1 strain WT-51; methyl cellulose suspension
  Inhibition ratio (%) (disease inhibitory rate vs placebo from AUC of mean disease score): 82%

## CC(C)[C@H](N)C(=O)OCCOCn1cnc2c(=O)nc(N)[nH]c21 [VCV, valcyclovir, reference compound]
ACV-resistant HSV-1; 17 days after infection
  death suppressing effect (in words): clear death suppressing effect was not found
ACV-resistant HSV-1; day 0 after infection
  The number of survived animals (n = 10): 10
ACV-resistant HSV-1; day 1 after infection
  The number of survived animals (n = 10): 10
ACV-resistant HSV-1; day 2 after infection
  The number of survived animals (n = 10): 10
ACV-resistant HSV-1; day 4 after infection
  The number of survived animals (n = 10): 10
ACV-resistant HSV-1; day 5 after infection
  The number of survived animals (n = 10): 10
ACV-resistant HSV-1; day 6 after infection
  The number of survived animals (n = 10): 10
ACV-resistant HSV-1; day 7 after infection
  The number of survived animals (n = 10): 9
ACV-resistant HSV-1; day 8 after infection
  The number of survived animals (n = 10): 8
ACV-resistant HSV-1; day 9 after infection
  The number of survived animals (n = 10): 4
ACV-resistant HSV-1; day 10 after infection
  The number of survived animals (n = 10): 2
ACV-resistant HSV-1; day 11 after infection
  The number of survived animals (n = 10): 2
ACV-resistant HSV-1; day 12 after infection
  The number of survived animals (n = 10): 2
ACV-resistant HSV-1; day 14 after infection
  The number of survived animals (n = 10): 2
ACV-resistant HSV-1; day 16 after infection
  The number of survived animals (n = 10): 2
ACV-resistant HSV-1; day 17 after infection
  The number of survived animals (n = 10): 2
